Test results from the NIST ThermoML archive (doi:10.1016/j.jct.2015.11.009).

How the values were obtained:
[1] = xn = mol fraction of the nth substance listed; conditions: 100 kPa, Liquid; for speed of sound: Frequency=3 MHz, Sing-around technique in a fixed-path interferometer; for mass density: Vibrating tube method
[2] = refractive index (Na D-line) (dimensionless); xn = mol fraction of the nth substance listed; conditions: 100 kPa, Liquid, Standard Abbe refractometry

O=C1CCCN1 [2-pyrrolidinone] + CCCCn1cc[n+](C)c1.F[B-](F)(F)F
Conditions	mass density, [1] [kg/m3]	refractive index, [2]	speed of sound, [1] [m/s]
298.15 K, x2 = 0	1107.16	1.48591	1634.4
298.15 K, x2 = 0.102	1128.93	1.47414	1625.5
298.15 K, x2 = 0.1951	1143.99	1.46433	1618
298.15 K, x2 = 0.3046	1155.01	1.45472	1608.3
298.15 K, x2 = 0.3886	1163.44	1.4487	1601
298.15 K, x2 = 0.5262	1173.25	1.44033	1590.7
298.15 K, x2 = 0.6185	1179.38	1.43543	1584.4
298.15 K, x2 = 0.69	1183.57	1.43222	1579.5
298.15 K, x2 = 0.7844	1188.69	1.4283	1574.3
298.15 K, x2 = 0.8861	1193.47	1.42468	1569.2
303.15 K, x2 = 0	1103.07	1.48403	1618
303.15 K, x2 = 0.102	1124.98	1.47243	1610.2
303.15 K, x2 = 0.1951	1139	1.46228	1604.1
303.15 K, x2 = 0.3046	1151.24	1.45316	1594.5
303.15 K, x2 = 0.3886	1159.65	1.44722	1587.5
303.15 K, x2 = 0.5262	1169.51	1.43885	1578.1
303.15 K, x2 = 0.6185	1175.68	1.43414	1572.5
303.15 K, x2 = 0.69	1179.91	1.43084	1567.2
303.15 K, x2 = 0.7844	1185.05	1.42696	1562.2
303.15 K, x2 = 0.8861	1189.85	1.42338	1557.3
308.15 K, x2 = 0	1098.99	1.48218	1601.6
308.15 K, x2 = 0.102	1121.03	1.47067	1595.5
308.15 K, x2 = 0.1951	1135.12	1.461	1589.2
308.15 K, x2 = 0.3046	1147.43	1.45161	1580.2
308.15 K, x2 = 0.3886	1155.87	1.44571	1573.8
308.15 K, x2 = 0.5262	1165.8	1.43737	1565.4
308.15 K, x2 = 0.6185	1172.01	1.43271	1560.1
308.15 K, x2 = 0.69	1176.26	1.42943	1554.7
308.15 K, x2 = 0.7844	1181.42	1.4256	1550
308.15 K, x2 = 0.8861	1186.26	1.42205	1545.4
313.15 K, x2 = 0	1094.9	1.48033	1585.4
313.15 K, x2 = 0.102	1117.09	1.46895	1580.5
313.15 K, x2 = 0.1951	1131.25	1.45929	1575
313.15 K, x2 = 0.3046	1143.62	1.44998	1566.5
313.15 K, x2 = 0.3886	1152.11	1.44418	1560.7
313.15 K, x2 = 0.5262	1162.12	1.43589	1552.7
313.15 K, x2 = 0.6185	1168.35	1.43125	1547.9
313.15 K, x2 = 0.69	1172.63	1.42805	1542.5
313.15 K, x2 = 0.7844	1177.81	1.4242	1537.9
313.15 K, x2 = 0.8861	1182.68	1.42069	1533.5
318.15 K, x2 = 0	1090.82	1.47841	1570.4
318.15 K, x2 = 0.102	1113.15	1.46715	1566
318.15 K, x2 = 0.1951	1127.38	1.45813	1560.9
318.15 K, x2 = 0.3046	1139.83	1.44832	1553.8
318.15 K, x2 = 0.3886	1148.36	1.44261	1547.8
318.15 K, x2 = 0.5262	1158.47	1.43436	1541.2
318.15 K, x2 = 0.6185	1164.72	1.42972	1536.4
318.15 K, x2 = 0.69	1169.02	1.42665	1530.7
318.15 K, x2 = 0.7844	1174.23	1.42286	1526.2
318.15 K, x2 = 0.8861	1179.12	1.41928	1521.9
323.15 K, x2 = 0	1086.75	1.47649	1553.5
323.15 K, x2 = 0.102	1109.21	1.46522	1550
323.15 K, x2 = 0.1951	1123.52	1.45533	1545.8
323.15 K, x2 = 0.3046	1136.08	1.44663	1539.4
323.15 K, x2 = 0.3886	1144.62	1.44099	1534.3
323.15 K, x2 = 0.5262	1154.82	1.43282	1528
323.15 K, x2 = 0.6185	1161.11	1.42817	1524
323.15 K, x2 = 0.69	1165.45	1.42522	1519.2
323.15 K, x2 = 0.7844	1170.66	1.42148	1514.2
323.15 K, x2 = 0.8861	1175.58	1.41788	1510.2
